From US11242340B2, “Crystal forms of demethyleneberberine hydrochloride and preparation method therefor” (priority 2018, dated 2022)
Entries after “also recorded” stand apart in the source; their conditions may differ. Where a name gives a salt, the structure may show the parent alone. Read-outs that look alike come from different tables or passages of the source.

Legend:
[1] = Stability in high-temperature experiment (60±2° C.); format: physicochemical; settings: for X-Ray Powder Diffraction / Content (%) / Content of Relevant Substance (%) / Stability in the high-temperature environment: 60±2° C.; for Stability in the high-temperature environment / Stability under stability test conditions (summary): hydrochloride; for Stability under stability test conditions (summary): summary over high temperature, high humidity and strong light irradiation
Protocol: Demethyleneberberine hydrochloride crystals A, B, C and D are taken in an appropriate amount and placed in plates numbered as A1, B1, C1 and D1 respectively, and then the plates are placed in a high-temperature environment at 60±2° C. respectively for stability test.

[2] = Stability in high-humidity experiment (RH90±5%); format: physicochemical
Source text: Demethyleneberberine hydrochloride crystals A, B, C and D are taken in an appropriate amount and placed in plates numbered as A2, B2, C2 and D2 respectively, and then the plates are placed in a high-humidity environment at RH90±5% respectively for stability test.

[3] = Stability in strong light irradiation experiment (4,500 lx±500 lx); format: physicochemical; settings: for Stability in the strong light irradiation environment: hydrochloride
Source text: Demethyleneberberine hydrochloride crystals A, B, C and D are taken in an appropriate amount and placed in plates numbered as A3, B3, C3 and D3 respectively, and then the plates are placed in a strong light irradiation environment at 4,500 lx±500 lx respectively for stability test.

[4] = Solubility in water system at different temperatures, HPLC; format: physicochemical; settings: hydrochloride; for Solubility comparison of the four crystal forms (summary): summary over water, methanol and ethanol systems; for Solubility ranking among the four crystal forms: water system, different temperatures, FIG. 13
Protocol: Demethyleneberberine hydrochloride crystals A, B, C and D are taken in an appropriate amount and the solubility of demethyleneberberine hydrochloride crystals A, B, C and D at different temperatures in a water system is studied respectively. 20 μl of sample is taken at each temperature node and detected by HPLC.

[5] = Solubility in methanol system at different temperatures, HPLC; format: physicochemical; settings: FIG. 14, hydrochloride
Protocol: Demethyleneberberine hydrochloride crystals A, B, C and D are taken in an appropriate amount and the solubility of demethyleneberberine hydrochloride crystals A, B, C and D at different temperatures in a methanol system is studied respectively. 20 μl of sample is taken at each temperature node and detected by HPLC.

[6] = Solubility in ethanol system at different temperatures, HPLC; format: physicochemical; settings: FIG. 15, hydrochloride
Protocol: Demethyleneberberine hydrochloride crystals A, B, C and D are taken in an appropriate amount and the solubility of demethyleneberberine hydrochloride crystals A, B, C and D at different temperatures in an ethanol system is studied respectively. 20 μl of sample is taken at each temperature node and detected by HPLC.

[7] = Determination of blood concentration in rats after ig administration; format: in vivo; settings: ig 200 mg/kg, plasma; for AUC: calculated from the experimental results
Protocol: Male SD rats are adaptively bred for 3 days, and rats having (220±20) g body weight are selected and divided into 5 groups, namely, blank group, demethyleneberberine hydrochloride crystal form A group, demethyleneberberine hydrochloride crystal form B group, demethyleneberberine hydrochloride crystal form C group and demethyleneberberine hydrochloride crystal form D group. Food supply is stopped for 12 h for gastric emptying before the experiment. For the rats in the experimental groups, ig (intragastric) administration dosage is 200 mg/kg. 0.2 ml of blood is taken from the orbits of the rats at 5 min., 15 min., 30 min., 1 h, 2 h, 6 h and 12 h respectively after ig administration, the whole blood is centrifuged, and 100 μl of plasma is taken and frozen at −20° C. for use later. 100 μl of plasma sample is taken, 200 μl of methanol is added into the plasma sample, the mixture is vortexed for 5 min., and then centrifuged at 10,000 r/min. for 15 min. in a centrifuge; the supernatant is taken and tested by HPLC. […] Through calculation on the basis of the experimental results, it is determined: DAUC=3.675 μg×ml^−1×h>AAUC=1.247 μg×ml^−1×h>BAUC=1.150 μg×ml^−1×h>CAUC=1.077 μg×ml^−1×h.

[8] = day 0, listed as B1, hydrochloride
[9] = day 5, listed as B1, hydrochloride
[10] = day 10, listed as B1, hydrochloride
[11] = day 0, listed as B2, hydrochloride
[12] = day 5, listed as B2, hydrochloride
[13] = day 10, listed as B2, hydrochloride
[14] = day 0, listed as B3, hydrochloride
[15] = day 5, listed as B3, hydrochloride
[16] = day 10, listed as B3, hydrochloride
[17] = day 0, listed as D1, hydrochloride
[18] = day 5, listed as D1, hydrochloride
[19] = day 10, listed as D1, hydrochloride
[20] = day 0, listed as D2, hydrochloride
[21] = day 5, listed as D2, hydrochloride
[22] = day 10, listed as D2, hydrochloride
[23] = day 0, listed as D3, hydrochloride
[24] = day 5, listed as D3, hydrochloride
[25] = day 10, listed as D3, hydrochloride

In the case of COc1ccc2cc3[n+](cc2c1OC)CCc1cc(O)c(O)cc1-3 [crystal form B, demethyleneberberine hydrochloride], the “X-Ray Powder Diffraction” value ([1]; day 0) is reported as “Unchanged”, the “Content (%)” value [1, 8] is reported as 99.82% and the “Content of Relevant Substance (%)” value [1, 8] is reported as 0.18%. The “X-Ray Powder Diffraction” value ([1]; day 5) was “Unchanged”, the “Content (%)” value [1, 9] was 99.62% and the “Content of Relevant Substance (%)” value [1, 9] was 0.38%. For the same compound, the “Content (%)” value [1, 10] was 99.67%, the “Content of Relevant Substance (%)” value [1, 10] was 0.33% and the “X-Ray Powder Diffraction” value [1, 10] was “Unchanged”. For the same compound, the “Stability in the high-temperature environment” value [1] was “relatively stable”, the “Stability under stability test conditions (summary)” value [1] was “stable” and the “Stability in the high-humidity environment” value [2] was “relatively stable”. For the same compound, the “X-Ray Powder Diffraction” value ([2]; day 0) was “Unchanged”, the “Content (%)” value [2, 11] was 99.58% and the “Content of Relevant Substance (%)” value [2, 11] was 0.42%. For the same compound, the “X-Ray Powder Diffraction” value ([2]; day 5) was “Unchanged”, the “Content (%)” value [2, 12] was 99.60% and the “Content of Relevant Substance (%)” value [2, 12] was 0.40%. The “X-Ray Powder Diffraction” value ([2]; day 10) was “Unchanged”, the “Content (%)” value [2, 13] was 99.56% and the “Content of Relevant Substance (%)” value [2, 13] was 0.44%. The “X-Ray Powder Diffraction” value ([3]; day 0) was “Unchanged”, the “Content (%)” value [3, 14] was 99.58% and the “Content of Relevant Substance (%)” value [3, 14] was 0.42%. For the same compound, the “X-Ray Powder Diffraction” value ([3]; day 5) was “Unchanged”, the “Content (%)” value [3, 15] was 99.77% and the “Content of Relevant Substance (%)” value [3, 15] was 0.23%. The “Content (%)” value [3, 16] was 99.67%, the “Content of Relevant Substance (%)” value [3, 16] was 0.33% and the “X-Ray Powder Diffraction” value [3, 16] was “Unchanged”. The “Stability in the strong light irradiation environment” value [3] was “relatively stable”, the “Solubility comparison of the four crystal forms (summary)” value [4] was “>solubility of crystal form A of demethyleneberberine hydrochloride” and the “Solubility ranking among the four crystal forms” value [4] was “>solubility of crystal form A of demethyleneberberine hydrochloride”. For the same compound, the “Solubility ranking among the four crystal forms” value [5] was “>solubility of crystal form A of demethyleneberberine hydrochloride”, the “Solubility ranking among the four crystal forms” value [6] was “>solubility of crystal form A of demethyleneberberine hydrochloride” and the AUC ([7]; male SD rats, hydrochloride) was 1150 ng·h/mL. It also gave a Cmax ([7]; male SD rats, hydrochloride) of 642 ng/mL and a tmax ([7]; male, SD, rat, po, 200 mg/kg, read-out: tmax) of 1 h.
In the case of COc1ccc2cc3[n+](cc2c1OC)CCc1cc(O)c(O)cc1-3 [crystal form D, demethyleneberberine hydrochloride], the “X-Ray Powder Diffraction” value ([1]; day 0) is reported as “Unchanged”, the “Content (%)” value [1, 17] is reported as 99.78% and the “Content of Relevant Substance (%)” value [1, 17] is reported as 0.22%. For the same compound, the “X-Ray Powder Diffraction” value ([1]; day 5) was “Unchanged”, the “Content (%)” value [1, 18] was 99.83% and the “Content of Relevant Substance (%)” value [1, 18] was 0.17%. The “Content (%)” value [1, 19] was 99.71%, the “Content of Relevant Substance (%)” value [1, 19] was 0.29% and the “X-Ray Powder Diffraction” value [1, 19] was “Changed”. The “Stability in the high-temperature environment” value [1] was “unstable in the long-term high-temperature environment, and undergoes crystal transformation”, the “Stability under stability test conditions (summary)” value [1] was “tends to have crystal transformation under conditions such as high temperature and strong light irradiation” and the “Stability in the high-humidity environment” value [2] was “relatively stable”. The “X-Ray Powder Diffraction” value ([2]; day 0) was “Unchanged”, the “Content (%)” value [2, 20] was 99.48% and the “Content of Relevant Substance (%)” value [2, 20] was 0.52%. The “X-Ray Powder Diffraction” value ([2]; day 5) was “Unchanged”, the “Content (%)” value [2, 21] was 99.41% and the “Content of Relevant Substance (%)” value [2, 21] was 0.59%. The “X-Ray Powder Diffraction” value ([2]; day 10) was “Unchanged”, the “Content (%)” value [2, 22] was 99.32% and the “Content of Relevant Substance (%)” value [2, 22] was 0.68%. For the same compound, the “X-Ray Powder Diffraction” value ([3]; day 0) was “Unchanged”, the “Content (%)” value [3, 23] was 99.78% and the “Content of Relevant Substance (%)” value [3, 23] was 0.22%. The “X-Ray Powder Diffraction” value ([3]; day 5) was “Unchanged”, the “Content (%)” value [3, 24] was 99.58% and the “Content of Relevant Substance (%)” value [3, 24] was 0.42%. The “Content (%)” value [3, 25] was 99.64%, the “Content of Relevant Substance (%)” value [3, 25] was 0.36% and the “X-Ray Powder Diffraction” value [3, 25] was “Changed”. For the same compound, the “Stability in the strong light irradiation environment” value [3] was “unstable in the long-term strong light irradiation environment, and undergoes crystal transformation”, the “Solubility comparison of the four crystal forms (summary)” value [4] was “lowest; also recorded: solubility of crystal form A of demethyleneberberine hydrochloride>solubility of crystal form D” and the “Solubility ranking among the four crystal forms” value [4] was “solubility of crystal form A of demethyleneberberine hydrochloride>solubility of crystal form D”. The “Solubility ranking among the four crystal forms” value [5] was “solubility of crystal form A of demethyleneberberine hydrochloride>solubility of crystal form D”, the “Solubility ranking among the four crystal forms” value [6] was “solubility of crystal form A of demethyleneberberine hydrochloride>solubility of crystal form D” and the AUC ([7]; male SD rats, hydrochloride) was 3675 ng·h/mL. For the same compound, the Cmax ([7]; male SD rats, hydrochloride) was 1234 ng/mL and the tmax ([7]; male SD rats, hydrochloride) was 2 h.
